Experiment [1] deals with rat primary neurons. Nature of the experiment: scratch assay in primary neuronal cell cultures followed for 24 hours with CytoSmart system. As to conditions: 2 mM. The experiment is classed as cell-based, Sprague Dawley rats. As to the method:
Ketone bodies serve as alternative fuel for the brain when glucose availability is limited. In humans, BHB is synthesized in the liver from acetoacetate, the first ketone produced in the fasting state. Its biosynthesis is catalyzed by the enzyme beta-hydroxybutyrate dehydrogenase. The effect of ketone bodies on cell regeneration in primary neuronal cell cultures was tested by using a scratch assay that was followed for 24 hours with a CYTOSMART system.
(§1) Cortical neurons from embryonic (E18) Sprague Dawley rats were isolated and cultured as described in Katnic, Guerrero et al. 2006. Briefly, excised brains were digested with 0.25% trypsin. Isolated cells were suspended in DMEM supplemented with fetal bovine serum (FBS, 10%, heat inactivated), penicillin (100 IU/ml), streptomycin ([…]) and amphotericin B1 ([…]) (Antibiotic/Antimycotic) and plated on poly-L-lysine coated coverslips. Following 24 hour incubation, the DMEM solution was replaced with Neurobasal media supplemented with B-27 (10 ml) and 0.5 mM L-glutamine. 3 week old rat primary neurons were exposed to 2 mM R,S-Sodium-3-hydroxibutyrate. The cell monolayer was scraped with a P100 pipette tip to create a scratch. Cell debris was removed by washing with culture medium. 100 snapshots were taken of the cell migration/cell regeneration into the scratch space over 24 hours by CytoSmart system.

For experiment [2], the system named is rat primary neurons. Nature of the experiment: immunofluorescence staining of the scratch assay (cell nuclei, Beta tubulin, synapsins). It is filed as cell-based, Sprague Dawley rats. As to conditions: 2 mM; after 24 hours; 10×, 20×, 60×; compared to control. As to the method:
as §1
The primary neurons underwent immunofluorescence staining. This fluorescence imaging on the scratch assay (after 24 hours/3-week old primary neurons) can be seen in FIGS. 6A-6B, 7A-7B, 8A-8B, and 9A-9B. The images have been lightened for illustrative purposes. Each of these figures includes four (4) images, labeled as I-IV. […]

In the case of `CC(O)CC(=O)[O-].[Na+]` (centres unmarked) [R,S-Sodium-3-hydroxibutyrate], the “DAPI stained cell nuclei in the scratch space area” value in the experiment with rat primary neurons [1] (24 hours, 20× (p=0.01) and 10× (p=0.0004) magnification, versus control) was “significantly more DAPI stained cell nuclei”. In addition, the “increase in cell coverage per 24 hours” value in the experiment with rat primary neurons [1] (24 hours, control about 0.9%) is listed as “about 3.3%”. The “cell migration and regeneration of the damaged area” value in the experiment on rat primary neurons [1] (over the 24-hour period, versus control) was “more intense cell migration and regeneration of the damaged area”. Moreover, in the experiment on rat primary neurons [2], the “cell nuclei visible around the regeneration site and in the scratch area” value is “More cell nuclei are visible around the regeneration site”; the “density of synapsins and tubulin at the regeneration site” value was “higher density of synapsins and tubulin”.

The values are drawn from US20210290581A1, “NEUROREGENERATION IMPROVED BY KETONE” (UNIVERSITY OF SOUTH FLORIDA, priority 2016, published 2021).
